What was measured:
Assay in all cases: viability relative to DMSO control (fraction); higher = less drug effect (more viable cells)
Conditions in all cases: 48 h
[1] = compound: CC(C)N(CCCNC(=O)Nc1ccc(C(C)(C)C)cc1)C[C@H]1O[C@@H](n2cc(Br)c3c(N)ncnc32)[C@H](O)[C@@H]1O [SGC 0946]
Outline: (§1)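 Viability is given as CellTiter-Glo luminescence relative to the median of 16 inner DMSO wells. Fresh or cryopreserved primary mononuclear tumour cells from blood, bone marrow (both Ficoll-isolated) or processed lymph node were plated at 4 × 10^4 cells per well in 384-well plates against five pre-plated compound concentrations, one well each. Incubation lasted 48 h at 37 °C and 5% CO2 in RPMI-1640 with penicillin/streptomycin, L-glutamine and human serum.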

[2] = compound: CC[C@H](CO)Nc1nc(NCc2ccccc2)c2ncn(C(C)C)c2n1 [Roscovitine]
Outline: as §1

[3] = compound: CC[C@]1(O)C[C@@H]2CN(CCc3c([nH]c4ccccc34)[C@@](C(=O)OC)(c3cc4c(cc3OC)N(C)[C@H]3[C@@](O)(C(N)=O)[C@H](O)[C@]5(CC)C=CCN6CC[C@]43[C@@H]65)C2)C1 [Vindesine]
Outline: as §1

[4] = compound: CO[C@@H]1[C@H](N(C)C(=O)c2ccccc2)C[C@H]2O[C@]1(C)n1c3ccccc3c3c4c(c5c6ccccc6n2c5c31)C(=O)NC4 [Midostaurin hydrate]
Outline: as §1

[5] = compound: CO[C@H]1C[C@@H]2CC[C@@H](C)[C@@](O)(O2)C(=O)C(=O)N2CCCC[C@H]2C(=O)O[C@H]([C@H](C)C[C@@H]2CC[C@@H](OCCO)[C@H](OC)C2)CC(=O)[C@H](C)/C=C(\C)[C@@H](O)[C@@H](OC)C(=O)[C@H](C)C[C@H](C)/C=C/C=C/C=C/1C [Everolimus]
Outline: as §1

[6] = compound: COc1cc(C(=O)O)ccc1NC(=O)[C@@H]1N[C@@H](CC(C)(C)C)[C@](C#N)(c2ccc(Cl)cc2F)[C@H]1c1cccc(Cl)c1F [Idasanutlin (RS7388)]
Outline: as §1

[7] = compound: COc1cc([C@@H]2c3cc4c(cc3[C@@H](O[C@@H]3O[C@@H]5CO[C@@H](C)O[C@H]5[C@H](O)[C@H]3O)[C@H]3COC(=O)[C@H]23)OCO4)cc(OC)c1O [Etoposide]
Outline: as §1

[8] = compound: C[C@@H]1CCN(C(=O)CC#N)C[C@@H]1N(C)c1ncnc2[nH]ccc12 [Tofacitinib]
Outline: as §1

[9] = compound: C[C@H](Nc1ncnc2nc[nH]c12)c1cc2cccc(Cl)c2c(=O)n1-c1ccccc1 [Duvelisib]
Outline: as §1

[10] = compound: Cn1c(CCCC(=O)O)nc2cc(N(CCCl)CCCl)ccc21 [Bendamustine]
Outline: as §1

[11] = compound: Nc1cccc2c1C(=O)N(C1CCC(=O)NC1=O)C2=O [Pomalidomide]
Outline: as §1

[12] = compound: O=C(Nc1ccc2[nH]nc(-c3ccncc3)c2c1)[C@@H]1CCN(CC(=O)N2CCN(c3ccc(-c4ncccn4)cc3)CC2)C1
Outline: as §1

[13] = compound: O=C(O)CCCc1ccc(N(CCCl)CCCl)cc1 [Chlorambucil]
Outline: as §1

[14] = compound: c1cn2cc(-c3ccc4cn[nH]c4c3)nc(Nc3ccc(N4CCOCC4)cc3)c2n1 [Entospletinib]
Outline: as §1

primary AML patient cells (S012)
viability ([1]; 0.024 µM): 1.09 | viability ([1]; 0.12 µM): 1.14 | viability ([1]; 0.6 µM): 0.959 | viability ([1]; 3 µM): 1.08 | viability ([1]; 15 µM): 0.886 | viability ([2]; 0.032 µM): 1.1 | viability ([2]; 0.16 µM): 1.11 | viability ([2]; 0.8 µM): 1.1 | viability ([2]; 4 µM): 1.06 | viability ([2]; 20 µM): 0.918 | viability ([3]; 0.016 µM): 0.972 | viability ([3]; 0.08 µM): 0.925 | viability ([3]; 0.4 µM): 0.852 | viability ([3]; 2 µM): 0.853 | viability ([3]; 10 µM): 0.904 | viability ([4]; 0.024 µM): 0.909 | viability ([4]; 0.12 µM): 0.982 | viability ([4]; 0.6 µM): 1.08 | viability ([4]; 3 µM): 1.03 | viability ([4]; 15 µM): 0.989 | viability ([5]; 0.0032 µM): 0.872 | viability ([5]; 0.016 µM): 0.854 | viability ([5]; 0.08 µM): 0.841 | viability ([5]; 0.4 µM): 0.866 | viability ([5]; 2 µM): 0.888 | viability ([6]; 0.032 µM): 1.03 | viability ([6]; 0.16 µM): 0.987 | viability ([6]; 0.8 µM): 0.991 | viability ([6]; 4 µM): 0.982 | viability ([6]; 20 µM): 1.06 | viability ([7]; 0.032 µM): 0.994 | viability ([7]; 0.16 µM): 1 | viability ([7]; 0.8 µM): 0.948 | viability ([7]; 4 µM): 1.02 | viability ([7]; 20 µM): 0.908 | viability ([8]; 0.024 µM): 1.03 | viability ([8]; 0.12 µM): 0.954 | viability ([8]; 0.6 µM): 1.03 | viability ([8]; 3 µM): 1.05 | viability ([8]; 15 µM): 1.01 | viability ([9]; 0.0016 µM): 1.01 | viability ([9]; 0.008 µM): 0.975 | viability ([9]; 0.04 µM): 0.996 | viability ([9]; 0.2 µM): 1.02 | viability ([9]; 1 µM): 0.896 | viability ([10]; 0.032 µM): 1 | viability ([10]; 0.16 µM): 1.11 | viability ([10]; 0.8 µM): 1 | viability ([10]; 4 µM): 1.05 | viability ([10]; 20 µM): 1.03 | viability ([11]; 0.0032 µM): 0.829 | viability ([11]; 0.016 µM): 0.981 | viability ([11]; 0.08 µM): 0.973 | viability ([11]; 0.4 µM): 0.821 | viability ([11]; 2 µM): 1 | viability ([12]; 0.008 µM): 1.08 | viability ([12]; 0.04 µM): 0.99 | viability ([12]; 0.2 µM): 0.961 | viability ([12]; 1 µM): 0.612 | viability ([12]; 5 µM): 0.363 | viability ([13]; 0.032 µM): 1.06 | viability ([13]; 0.16 µM): 0.919 | viability ([13]; 0.8 µM): 1.01 | viability ([13]; 4 µM): 1.02 | viability ([13]; 20 µM): 0.832 | viability ([14]; 0.024 µM): 1.06 | viability ([14]; 0.12 µM): 0.999 | viability ([14]; 0.6 µM): 0.967 | viability ([14]; 3 µM): 1.04 | viability ([14]; 15 µM): 1.04

primary FL patient cells (S022)
viability ([1]; 0.024 µM): 0.902 | viability ([1]; 0.12 µM): 0.937 | viability ([1]; 0.6 µM): 0.808 | viability ([1]; 3 µM): 0.9 | viability ([1]; 15 µM): 0.484 | viability ([2]; 0.032 µM): 1.03 | viability ([2]; 0.16 µM): 1.03 | viability ([2]; 0.8 µM): 1.05 | viability ([2]; 4 µM): 0.992 | viability ([2]; 20 µM): 0.781 | viability ([3]; 0.016 µM): 0.568 | viability ([3]; 0.08 µM): 0.451 | viability ([3]; 0.4 µM): 0.373 | viability ([3]; 2 µM): 0.348 | viability ([3]; 10 µM): 0.214 | viability ([4]; 0.024 µM): 1.05 | viability ([4]; 0.12 µM): 1.01 | viability ([4]; 0.6 µM): 1.11 | viability ([4]; 3 µM): 1.03 | viability ([4]; 15 µM): 0.774 | viability ([5]; 0.0032 µM): 0.943 | viability ([5]; 0.016 µM): 0.933 | viability ([5]; 0.08 µM): 0.911 | viability ([5]; 0.4 µM): 0.882 | viability ([5]; 2 µM): 0.966 | viability ([6]; 0.032 µM): 0.837 | viability ([6]; 0.16 µM): 0.831 | viability ([6]; 0.8 µM): 0.772 | viability ([6]; 4 µM): 0.608 | viability ([6]; 20 µM): 0.579 | viability ([7]; 0.032 µM): 0.967 | viability ([7]; 0.16 µM): 0.975 | viability ([7]; 0.8 µM): 0.921 | viability ([7]; 4 µM): 0.987 | viability ([7]; 20 µM): 0.783 | viability ([8]; 0.024 µM): 0.904 | viability ([8]; 0.12 µM): 0.859 | viability ([8]; 0.6 µM): 0.936 | viability ([8]; 3 µM): 0.914 | viability ([8]; 15 µM): 0.894 | viability ([9]; 0.0016 µM): 0.949 | viability ([9]; 0.008 µM): 0.933 | viability ([9]; 0.04 µM): 0.988 | viability ([9]; 0.2 µM): 0.82 | viability ([9]; 1 µM): 0.873 | viability ([10]; 0.032 µM): 1.13 | viability ([10]; 0.16 µM): 1.1 | viability ([10]; 0.8 µM): 1.19 | viability ([10]; 4 µM): 1.14 | viability ([10]; 20 µM): 0.888 | viability ([11]; 0.0032 µM): 0.928 | viability ([11]; 0.016 µM): 1.08 | viability ([11]; 0.08 µM): 1.05 | viability ([11]; 0.4 µM): 0.954 | viability ([11]; 2 µM): 1 | viability ([12]; 0.008 µM): 0.888 | viability ([12]; 0.04 µM): 0.929 | viability ([12]; 0.2 µM): 0.895 | viability ([12]; 1 µM): 0.911 | viability ([12]; 5 µM): 0.96 | viability ([13]; 0.032 µM): 1.08 | viability ([13]; 0.16 µM): 0.896 | viability ([13]; 0.8 µM): 1.08 | viability ([13]; 4 µM): 1.04 | viability ([13]; 20 µM): 0.582 | viability ([14]; 0.024 µM): 1.01 | viability ([14]; 0.12 µM): 1.05 | viability ([14]; 0.6 µM): 1.07 | viability ([14]; 3 µM): 0.933 | viability ([14]; 15 µM): 0.964
